Measured values taken from PubChem BioAssay AID1963843 (Molecular Pharmacology Branch, DTP, NCI, 2024).
pIC50: −log10 of the molar value.

Test system: 616215-338-R-J1-PDC complex spheroid viability
Test: Anticancer human tumor 616215-338-R-J1-PDC patient-derived colon adenocarcinoma cell line growth inhibition [POLQ]
Details: for pIC50: curve of first compound; for viability, T/C: stronger effect = lower value
Procedure, shortened: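 Growth inhibition in 3D: complex spheroids (tumor PDC, HUVEC, MSC) treated with POLQ inhibitor combinations; where Cmax unknown, highest tested concentration 10 microM, except SN-38 at 1 microM.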

[1] = second compound 0.0316 µM, first compound 0.00316 µM
[2] = second compound 0.0316 µM, first compound 0.01 µM
[3] = second compound 0.0316 µM, first compound 0.0316 µM
[4] = second compound 0.0316 µM, first compound 0.1 µM
[5] = second compound 0.0316 µM, first compound 0.316 µM
[6] = second compound 0.0316 µM, first compound 1 µM
[7] = second compound 0.1 µM, first compound 0.00316 µM
[8] = second compound 0.1 µM, first compound 0.01 µM
[9] = second compound 0.1 µM, first compound 0.0316 µM
[10] = second compound 0.1 µM, first compound 0.1 µM
[11] = second compound 0.1 µM, first compound 0.316 µM
[12] = second compound 0.1 µM, first compound 1 µM
[13] = second compound 0.316 µM, first compound 0.00316 µM
[14] = second compound 0.316 µM, first compound 0.01 µM
[15] = second compound 0.316 µM, first compound 0.0316 µM
[16] = second compound 0.316 µM, first compound 0.1 µM
[17] = second compound 0.316 µM, first compound 0.316 µM
[18] = second compound 0.316 µM, first compound 1 µM
[19] = second compound 1 µM, first compound 0.00316 µM
[20] = second compound 1 µM, first compound 0.01 µM
[21] = second compound 1 µM, first compound 0.0316 µM
[22] = second compound 1 µM, first compound 0.1 µM
[23] = second compound 1 µM, first compound 0.316 µM
[24] = second compound 1 µM, first compound 1 µM
[25] = second compound 3.16 µM, first compound 0.00316 µM
[26] = second compound 3.16 µM, first compound 0.01 µM
[27] = second compound 3.16 µM, first compound 0.0316 µM
[28] = second compound 3.16 µM, first compound 0.1 µM
[29] = second compound 3.16 µM, first compound 0.316 µM
[30] = second compound 3.16 µM, first compound 1 µM
[31] = second compound 10 µM, first compound 0.00316 µM
[32] = second compound 10 µM, first compound 0.01 µM
[33] = second compound 10 µM, first compound 0.0316 µM
[34] = second compound 10 µM, first compound 0.1 µM
[35] = second compound 10 µM, first compound 0.316 µM
[36] = second compound 10 µM, first compound 1 µM
[37] = second compound 0.0316 µM, first compound 3.16 µM
[38] = second compound 0.0316 µM, first compound 10 µM
[39] = second compound 0.1 µM, first compound 3.16 µM
[40] = second compound 0.1 µM, first compound 10 µM
[41] = second compound 0.316 µM, first compound 3.16 µM
[42] = second compound 0.316 µM, first compound 10 µM
[43] = second compound 1 µM, first compound 3.16 µM
[44] = second compound 1 µM, first compound 10 µM
[45] = second compound 3.16 µM, first compound 3.16 µM
[46] = second compound 3.16 µM, first compound 10 µM
[47] = second compound 10 µM, first compound 3.16 µM
[48] = second compound 10 µM, first compound 10 µM
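Note: spheroids exposed to compounds for one week before readout.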
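Throughout, for viability, T/C: percent viability relative to DMSO vehicle wells taken as 100%.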

Molecule C=CCn1c(=O)c2cnc(Nc3ccc(N4CCN(C)CC4)cc3)nc2n1-c1cccc(C(C)(C)O)n1 + Cc1cccc(N(C)C(=O)C2C(O)CCN2c2nc(C)cc(C(F)(F)F)c2C#N)c1 has a pIC50 (second compound 0.0316 µM) of 6.57, a pIC50 (second compound 0.1 µM) of 6.27 and a pIC50 (second compound 0.316 µM) of 6.25. For the same molecule, the pIC50 (second compound 1 µM) was 6.37, the pIC50 (second compound 3.16 µM) was 6.48 and the pIC50 (second compound 10 µM) was 6.60. It also gave a viability, T/C [1] of 110%, a viability, T/C [2] of 87.5% and a viability, T/C [3] of 108%. It also gave a viability, T/C [4] of 86.7%, a viability, T/C [5] of 44.5% and a viability, T/C [6] of 34.3%. For the same molecule, the viability, T/C [7] was 102%, the viability, T/C [8] was 97.4% and the viability, T/C [9] was 85.7%. The viability, T/C [10] was 93.4%, the viability, T/C [11] was 65.4% and the viability, T/C [12] was 31.2%. It also gave a viability, T/C [13] of 97.4%, a viability, T/C [14] of 107% and a viability, T/C [15] of 91.7%. It also gave a viability, T/C [16] of 92.4%, a viability, T/C [17] of 67.8% and a viability, T/C [18] of 31.3%. For the same molecule, the viability, T/C [19] was 96.8%, the viability, T/C [20] was 90% and the viability, T/C [21] was 92.5%. It also gave a viability, T/C [22] of 76.7%, a viability, T/C [23] of 58.4% and a viability, T/C [24] of 27.8%. For the same molecule, the viability, T/C [25] was 98.1%, the viability, T/C [26] was 91.1% and the viability, T/C [27] was 93.8%. The viability, T/C [28] was 90.2%, the viability, T/C [29] was 50.9% and the viability, T/C [30] was 30.9%. The viability, T/C [31] was 109%, the viability, T/C [32] was 90.1% and the viability, T/C [33] was 90.2%. It also gave a viability, T/C [34] of 83.8%, a viability, T/C [35] of 40.9% and a viability, T/C [36] of 26.9%.
Work on CNCc1ccc(-c2[nH]c3cc(F)cc4c3c2CCNC4=O)cc1 + Cc1cccc(N(C)C(=O)C2C(O)CCN2c2nc(C)cc(C(F)(F)F)c2C#N)c1 yielded a pIC50 (second compound 0.0316 µM) of less than 5.00, a pIC50 (second compound 0.1 µM) of less than 5.00 and a pIC50 (second compound 0.316 µM) of less than 5.00. For the same molecule, the pIC50 (second compound 1 µM) was less than 5.00, the pIC50 (second compound 3.16 µM) was less than 5.00 and the pIC50 (second compound 10 µM) was less than 5.00. The viability, T/C [3] was 96.9%, the viability, T/C [4] was 99.2% and the viability, T/C [5] was 105%. It also gave a viability, T/C [6] of 105%, a viability, T/C [37] of 106% and a viability, T/C [38] of 86.2%. The viability, T/C [9] was 101%, the viability, T/C [10] was 97.7% and the viability, T/C [11] was 95.5%. For the same molecule, the viability, T/C [12] was 101%, the viability, T/C [39] was 108% and the viability, T/C [40] was 73.8%. It also gave a viability, T/C [15] of 99.8%, a viability, T/C [16] of 103% and a viability, T/C [17] of 96.6%. For the same molecule, the viability, T/C [18] was 105%, the viability, T/C [41] was 105% and the viability, T/C [42] was 72.8%. For the same molecule, the viability, T/C [21] was 107%, the viability, T/C [22] was 108% and the viability, T/C [23] was 102%. It also gave a viability, T/C [24] of 103%, a viability, T/C [43] of 112% and a viability, T/C [44] of 70%. It also gave a viability, T/C [27] of 111%, a viability, T/C [28] of 109% and a viability, T/C [29] of 111%. It also gave a viability, T/C [30] of 104%, a viability, T/C [45] of 102% and a viability, T/C [46] of 65.4%. The viability, T/C [33] was 122%, the viability, T/C [34] was 105% and the viability, T/C [35] was 109%. For the same molecule, the viability, T/C [36] was 107%, the viability, T/C [47] was 108% and the viability, T/C [48] was 74.7%.
Work on COc1cccc(OCCCN)c1-c1cc(Nc2cnc(C#N)cn2)n[nH]1 + Cc1cccc(N(C)C(=O)C2C(O)CCN2c2nc(C)cc(C(F)(F)F)c2C#N)c1 yielded a pIC50 (second compound 0.0316 µM) of 7.03, a pIC50 (second compound 0.1 µM) of 7.21 and a pIC50 (second compound 0.316 µM) of 7.23. It also gave a pIC50 (second compound 1 µM) of 7.27, a pIC50 (second compound 3.16 µM) of 7.25 and a pIC50 (second compound 10 µM) of 7.43. It also gave a viability, T/C [1] of 94.8%, a viability, T/C [2] of 89.4% and a viability, T/C [3] of 73.1%. It also gave a viability, T/C [4] of 47.9%, a viability, T/C [5] of 38.9% and a viability, T/C [6] of 35.3%. It also gave a viability, T/C [7] of 107%, a viability, T/C [8] of 97.8% and a viability, T/C [9] of 57.3%. It also gave a viability, T/C [10] of 47.8%, a viability, T/C [11] of 34.3% and a viability, T/C [12] of 29.9%. It also gave a viability, T/C [13] of 99%, a viability, T/C [14] of 86.1% and a viability, T/C [15] of 61.7%. The viability, T/C [16] was 38.3%, the viability, T/C [17] was 37% and the viability, T/C [18] was 29.3%. For the same molecule, the viability, T/C [19] was 108%, the viability, T/C [20] was 89.9% and the viability, T/C [21] was 56.1%. It also gave a viability, T/C [22] of 41.3%, a viability, T/C [23] of 35.8% and a viability, T/C [24] of 26.7%. For the same molecule, the viability, T/C [25] was 86.8%, the viability, T/C [26] was 82.9% and the viability, T/C [27] was 60.4%. It also gave a viability, T/C [28] of 38.4%, a viability, T/C [29] of 43.8% and a viability, T/C [30] of 29.1%. It also gave a viability, T/C [31] of 104%, a viability, T/C [32] of 81.3% and a viability, T/C [33] of 47.5%. It also gave a viability, T/C [34] of 38.3%, a viability, T/C [35] of 34.7% and a viability, T/C [36] of 21.2%.
Molecule O=C(c1cc(Cc2n[nH]c(=O)c3ccccc23)ccc1F)N1CCN(C(=O)C2CC2)CC1 + Cc1cccc(N(C)C(=O)C2C(O)CCN2c2nc(C)cc(C(F)(F)F)c2C#N)c1 has a pIC50 (second compound 0.0316 µM) of less than 5.00, a pIC50 (second compound 0.1 µM) of less than 5.00 and a pIC50 (second compound 0.316 µM) of less than 5.00. The pIC50 (second compound 1 µM) was less than 5.00, the pIC50 (second compound 3.16 µM) was less than 5.00 and the pIC50 (second compound 10 µM) was less than 5.00. For the same molecule, the viability, T/C [3] was 105%, the viability, T/C [4] was 93.8% and the viability, T/C [5] was 102%. For the same molecule, the viability, T/C [6] was 98.4%, the viability, T/C [37] was 103% and the viability, T/C [38] was 87.8%. For the same molecule, the viability, T/C [9] was 103%, the viability, T/C [10] was 98.4% and the viability, T/C [11] was 107%. The viability, T/C [12] was 107%, the viability, T/C [39] was 99.9% and the viability, T/C [40] was 94.3%. The viability, T/C [15] was 95.3%, the viability, T/C [16] was 102% and the viability, T/C [17] was 108%. It also gave a viability, T/C [18] of 98.9%, a viability, T/C [41] of 108% and a viability, T/C [42] of 89.2%. For the same molecule, the viability, T/C [21] was 111%, the viability, T/C [22] was 106% and the viability, T/C [23] was 105%. The viability, T/C [24] was 101%, the viability, T/C [43] was 102% and the viability, T/C [44] was 78%. It also gave a viability, T/C [27] of 103%, a viability, T/C [28] of 102% and a viability, T/C [29] of 95.6%. It also gave a viability, T/C [30] of 103%, a viability, T/C [45] of 97.3% and a viability, T/C [46] of 88.4%. It also gave a viability, T/C [33] of 113%, a viability, T/C [34] of 101% and a viability, T/C [35] of 100%. For the same molecule, the viability, T/C [36] was 104%, the viability, T/C [47] was 110% and the viability, T/C [48] was 86.6%.
